These results are taken from patent US9481677B2, “Biaryl ether sulfonamides and their use as therapeutic agents” (XENON PHARMACEUTICALS INC., priority 2011, dated 2016).

Where only a bound is given, the exact number is not on record here.

The target in the assay is Nav1.7 (Homo sapiens (Human), UniProt Q15858). Briefly: Patch voltage clamp electrophysiology, block of inactivated-state Nav1.7 in HEK-293 cells. It counts as cell-based. Conditions: affinity for the inactivated state; HEK-293 cells with β1 subunit; held at -60 mV; read-out: NaV1.7 (IC50 class). Here is the method:
Patch voltage clamp electrophysiology allows for the direct measurement and quantification of block of voltage-gated sodium channels (Nav's), and allows the determination of the time- and voltage-dependence of block which has been interpreted as differential binding to the resting, open, and inactivated states of the sodium channel (Hille, B., Journal of General Physiology (1977), 69: 497-515).
The following patch voltage clamp electrophysiology studies were performed on representative compounds of the invention using human embryonic kidney cells (HEK), permanently transfected with an expression vector containing the full-length cDNA coding for the desired human sodium channel α-subunit, grown in culture media containing 10% FBS, 1% PSG, and 0.5 mg/mL G418 at 37° C. with 5% CO2. […] Nav1.7 and Nav1.5 cDNAs (NM_002977 and AC137587; SCN5A, respectively) were stably expressed in HEK-293 cells. The β1 subunit was coexpressed only in the Nav1.7 cell line.
Sodium currents were measured using the patch clamp technique in the whole-cell configuration using either a PatchXpress automated voltage clamp or manually using an Axopatch 200B (Axon Instruments) or Model 2400 (A-M systems) amplifier. […] The pipette was filled with a solution comprised of: 5 mM NaCl, 10 mM CsCl, 120 mM CsF, 0.1 mM CaCl2, 2 mM MgCl2, 10 mM HEPES, 10 mM EGTA; and adjusted to pH 7.2 with CsOH. The external solution had the following composition: 140 mM NaCl, 5 mM KCl, 2 mM CaCl2, 1 mM MgCl2, 10 mM HEPES; and adjusted to pH 7.4 with NaOH. In some studies, the external sodium was reduced by equimolar replacement with choline. Osmolarity in the CsF internal and NaCl external solutions was adjusted to 300 mOsm/kg and 310 mOsm/kg with glucose, respectively. All recordings were performed at ambient temperature in a bath chamber with a volume of 150 μL. Control sodium currents were measured in 0.5% DMSO. Controls and representative compounds of the invention were applied to the recording chamber through a 4-pinch or 8-pinch valve bath perfusion system manufactured by ALA Scientific Instruments.
Currents were recorded at 40 kHz sampling frequency, filtered at […], and stored using a Digidata-1322A analogue/digital interface with the pClamp software (Axon Instruments). Series resistance compensation was applied (60-80%). […] All statistics in this study are given as mean±SD.
The membrane potential was maintained at a voltage where inactivation of the channel is complete (which was −60 mV for both Nav1.7 and Nav1.5). The voltage is then stepped back to a very negative (Vhold=−150 mV) voltage for 20 ms and then a test pulse is applied to quantify the compound block. […] The percent decrease in sodium current following wash-on of compound was taken as the percent block of sodium channels.
The Example numbers provided in Table 1 and Table 2 correspond to the Examples herein.

Sequence of Nav1.7 (Q15858 other isoform, or with tags, fused parts or gaps): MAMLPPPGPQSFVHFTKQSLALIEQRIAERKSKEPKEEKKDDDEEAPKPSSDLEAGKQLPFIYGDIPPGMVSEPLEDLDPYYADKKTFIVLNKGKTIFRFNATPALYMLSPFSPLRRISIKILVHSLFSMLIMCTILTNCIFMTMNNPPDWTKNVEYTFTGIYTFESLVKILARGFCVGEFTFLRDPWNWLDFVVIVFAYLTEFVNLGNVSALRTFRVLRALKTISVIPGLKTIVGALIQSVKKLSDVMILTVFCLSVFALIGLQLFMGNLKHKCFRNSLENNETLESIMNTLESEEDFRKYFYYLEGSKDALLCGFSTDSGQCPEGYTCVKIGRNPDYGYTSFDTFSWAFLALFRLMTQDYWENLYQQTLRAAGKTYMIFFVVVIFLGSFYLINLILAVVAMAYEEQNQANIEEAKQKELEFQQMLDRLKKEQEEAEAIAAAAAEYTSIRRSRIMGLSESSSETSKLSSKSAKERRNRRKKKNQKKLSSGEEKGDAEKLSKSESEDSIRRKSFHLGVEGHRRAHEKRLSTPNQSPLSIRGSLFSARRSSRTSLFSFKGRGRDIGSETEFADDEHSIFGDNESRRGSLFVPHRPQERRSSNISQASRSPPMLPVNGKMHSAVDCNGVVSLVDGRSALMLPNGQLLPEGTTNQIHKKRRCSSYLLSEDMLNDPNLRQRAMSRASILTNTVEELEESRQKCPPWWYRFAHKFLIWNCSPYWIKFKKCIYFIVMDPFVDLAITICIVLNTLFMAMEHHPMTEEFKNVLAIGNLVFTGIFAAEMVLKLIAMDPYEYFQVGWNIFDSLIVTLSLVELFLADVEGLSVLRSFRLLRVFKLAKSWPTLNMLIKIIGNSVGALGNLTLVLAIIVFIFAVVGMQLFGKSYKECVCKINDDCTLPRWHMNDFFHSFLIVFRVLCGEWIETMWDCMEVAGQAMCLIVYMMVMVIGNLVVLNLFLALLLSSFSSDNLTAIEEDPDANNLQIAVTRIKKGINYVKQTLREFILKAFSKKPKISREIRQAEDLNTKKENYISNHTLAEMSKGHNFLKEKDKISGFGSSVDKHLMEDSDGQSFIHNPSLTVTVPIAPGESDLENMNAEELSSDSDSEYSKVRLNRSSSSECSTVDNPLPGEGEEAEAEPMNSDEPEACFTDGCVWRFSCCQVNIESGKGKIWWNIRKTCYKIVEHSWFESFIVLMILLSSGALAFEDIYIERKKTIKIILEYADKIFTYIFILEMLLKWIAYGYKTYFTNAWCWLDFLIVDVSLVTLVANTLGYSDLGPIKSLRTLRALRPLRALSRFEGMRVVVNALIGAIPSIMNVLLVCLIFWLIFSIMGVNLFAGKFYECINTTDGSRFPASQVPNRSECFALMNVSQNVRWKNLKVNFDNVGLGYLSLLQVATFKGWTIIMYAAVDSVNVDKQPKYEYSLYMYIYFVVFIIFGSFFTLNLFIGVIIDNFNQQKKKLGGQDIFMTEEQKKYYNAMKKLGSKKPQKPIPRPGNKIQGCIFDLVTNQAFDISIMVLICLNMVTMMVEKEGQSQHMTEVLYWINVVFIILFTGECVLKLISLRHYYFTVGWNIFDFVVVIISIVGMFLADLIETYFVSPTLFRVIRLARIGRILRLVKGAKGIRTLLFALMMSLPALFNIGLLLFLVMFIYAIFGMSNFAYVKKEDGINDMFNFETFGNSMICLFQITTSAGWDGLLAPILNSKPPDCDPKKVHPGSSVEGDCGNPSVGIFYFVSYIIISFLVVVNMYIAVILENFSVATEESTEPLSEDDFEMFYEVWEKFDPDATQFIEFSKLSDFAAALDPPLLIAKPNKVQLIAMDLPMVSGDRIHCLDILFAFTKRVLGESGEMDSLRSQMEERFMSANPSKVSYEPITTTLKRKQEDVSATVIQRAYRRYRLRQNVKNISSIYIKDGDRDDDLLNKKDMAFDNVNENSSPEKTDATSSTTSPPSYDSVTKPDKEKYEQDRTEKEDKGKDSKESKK
Sequence of Nav1.7 (Q07699 19-218 partner): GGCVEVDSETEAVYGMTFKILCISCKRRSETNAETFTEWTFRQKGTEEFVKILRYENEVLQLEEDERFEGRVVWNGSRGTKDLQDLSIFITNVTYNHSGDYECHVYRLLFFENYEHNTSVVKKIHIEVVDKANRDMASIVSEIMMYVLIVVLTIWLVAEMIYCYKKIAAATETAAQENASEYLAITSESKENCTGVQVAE

In general, IC50 refers to the midpoint of a concentration-inhibition curve. Consider `O=C1Cc2cc(-c3cc(Cl)ccc3Oc3cc(F)c(S(=O)(=O)Nc4ncns4)cc3F)ccc2N1` [Example 77, 4-(4-chloro-2-(2-oxoindolin-5-yl)phenoxy)-2,5-difluoro-N-(1,2,4-thiadiazol-5-yl)benzenesulfonamide], for which the IC50 is not above 100 nM.

Consider `Cn1cnc2c(-c3cc(Cl)ccc3Oc3cc(F)c(S(=O)(=O)Nc4ncns4)cc3F)ncnc21` [Example 39, 4-(4-chloro-2-(9-methyl-9H-purin-6-yl)phenoxy)-2,5-difluoro-N-(1,2,4-thiadiazol-5-yl)benzenesulfonamide], for which the IC50 lay within 1000 to 10000 nM.

Take `O=c1[nH]c2ccc(-c3cc(Cl)ccc3Oc3cc(F)c(S(=O)(=O)Nc4ncns4)cc3F)cc2o1` [Example 53, 4-(4-chloro-2-(2-oxo-2,3-dihydrobenzo[d]oxazol-6-yl)phenoxy)-2,5-difluoro-N-(1,2,4-thiadiazol-5-yl)benzenesulfonamide]: the IC50 was not above 100 nM.

For the molecule `NC(=O)c1cnc2ccc(-c3cc(Cl)ccc3Oc3cc(F)c(S(=O)(=O)Nc4ncns4)cc3F)cn12` [Example 46, 6-(2-(4-(N-(1,2,4-thiadiazol-5-yl)sulfamoyl)-2,5-difluorophenoxy)-5-chlorophenyl)imidazo[1,2-a]pyridine-3-carboxamide], the IC50 was not above 100 nM.

On to `Nc1noc2ccc(-c3cc(Cl)ccc3Oc3cc(F)c(S(=O)(=O)Nc4ncns4)cc3F)cc12` [Example 44, 4-(2-(3-aminobenzo[d]isoxazol-5-yl)-4-chlorophenoxy)-2,5-difluoro-N-(1,2,4-thiadiazol-5-yl)benzenesulfonamide], for which the IC50 is not above 100 nM.

For the molecule `O=C1Cc2ccc(-c3cc(Cl)ccc3Oc3cc(F)c(S(=O)(=O)Nc4ncns4)cc3F)cc2N1` [Example 55, 4-(4-chloro-2-(2-oxoindolin-6-yl)phenoxy)-2,5-difluoro-N-(1,2,4-thiadiazol-5-yl)benzenesulfonamide], the IC50 was not above 100 nM.
